Source: patent US11051515B2, “3-acyl-benzamides and their use as herbicides” (Bayer Aktiengesellschaft, priority 2017, dated 2021)

Key:
[1] = test system: ECHCG; assay: Post-emergence action against ECHCG; format: in vivo, Echinochloa crus-galli; conditions: post-emergence, dosage 80 g/ha, visual assessment about 3 weeks after treatment vs untreated controls
How it was run: (§1)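 Post-emergence foliar spray on greenhouse plants at the one-leaf stage, using wettable-powder or emulsion-concentrate formulations in water (600 to […], plus 0.2% wetting agent). Damage scored by eye roughly 3 weeks later against untreated plants: 0% = like control, 100% = dead.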

[2] = test system: VERPE; assay: Post-emergence action against VERPE; format: in vivo, Veronica persica; conditions: dosage 80 g/ha
How it was run: as §1

[3] = test system: AVEFA; assay: Pre-emergence action against AVEFA; format: in vivo, Avena fatua; conditions: dosage 320 g/ha, scored visually after 3 weeks vs untreated controls
How it was run: (§2)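 Seeds sown in sandy loam in wood-fiber pots and covered with soil. Greenhouse growth; visual damage scored after 3 weeks versus untreated controls (100% = dead, 0% = like control).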

[4] = test system: MATIN; assay: Post-emergence action against MATIN; format: in vivo, Matricaria inodora; conditions: post-emergence, dosage 80 g/ha, visual assessment about 3 weeks after treatment vs untreated controls
How it was run: as §1

[5] = test system: STEME; assay: Post-emergence action against STEME; format: in vivo, Stellaria media; conditions: post-emergence, dosage 80 g/ha
How it was run: as §1

[6] = test system: ALOMY; assay: Pre-emergence action against ALOMY; format: in vivo, Alopecurus myosuroides; conditions: dosage 320 g/ha; pre-emergence; scored visually after 3 weeks vs untreated controls; 100% = plants have died, 0% = like control plants
How it was run: as §2

[7] = test system: ABUTH; assay: Post-emergence action against ABUTH; format: in vivo, Abutilon theophrasti; conditions: post-emergence, dosage 80 g/ha, visual assessment about 3 weeks after treatment vs untreated controls
How it was run: as §1

[8] = test system: VERPE; assay: Pre-emergence action against VERPE; format: in vivo, Veronica persica; conditions: Dosage 320 g/ha, pre-emergence
How it was run: as §2

[9] = test system: LOLMU; assay: Post-emergence action against LOLMU; format: in vivo, Lolium multiflorum; conditions: dosage 80 g/ha, visual assessment about 3 weeks after treatment vs untreated controls
Experimental: Seeds of monocotyledonous and dicotyledonous weed and crop plants are laid out in sandy loam soil in wood-fiber pots, covered with soil and cultivated in a greenhouse under good growth conditions. 2 to 3 weeks after sowing, the test plants are treated at the one-leaf stage. The compounds of the invention, formulated in the form of wettable powders (WP) or as emulsion concentrates (EC), are then sprayed onto the green parts of the plants in the form of an aqueous suspension or emulsion at a water application rate equating to […], with addition of 0.2% wetting agent. After the test plants have been left to stand in the greenhouse under optimal growth conditions for about 3 weeks, the action of the preparations is assessed visually in comparison to untreated controls (herbicidal action in percent (%): 100% activity=the plants have died, 0% activity=like control plants). […] At the same time, inventive compounds leave Gramineae crops such as barley, wheat, rye, millet/Sorghum, corn or rice virtually undamaged when applied post-emergence, even at high active ingredient dosages. In addition, some substances are also harmless to dicotyledonous crops such as soya, cotton, oilseed rape, sugar beet or potatoes. Some of the compounds according to the invention have high selectivity and are therefore suitable for controlling unwanted vegetation in agricultural crops by the post-emergence method. The data of Tables B18 to B34 below illustrate, in an exemplary manner, the […] herbicidal action of the compounds according to the invention, the herbicidal activity being stated in percent.

[10] = test system: AMARE; assay: Post-emergence action against AMARE; format: in vivo, Amaranthus retroflexus; conditions: post-emergence, dosage 80 g/ha, visual assessment about 3 weeks after treatment vs untreated controls
How it was run: as §1

[11] = test system: VIOTR; assay: Pre-emergence action against VIOTR; format: in vivo, Viola tricolor; conditions: Dosage 320 g/ha, pre-emergence
How it was run: as §2

[12] = test system: SETVI; assay: Post-emergence action against SETVI; format: in vivo, Setaria viridis; conditions: post-emergence, dosage 80 g/ha, visual assessment about 3 weeks after treatment vs untreated controls
How it was run: as §1

[13] = test system: PHBPU; assay: Post-emergence action against PHBPU; format: in vivo, Pharbitis purpurea; conditions: post-emergence, dosage 80 g/ha
How it was run: as §1

[14] = test system: STEME; assay: Pre-emergence action against STEME; format: in vivo, Stellaria media; conditions: Dosage 320 g/ha, pre-emergence
How it was run: as §2

[15] = test system: CYPES; assay: Post-emergence action against CYPES; format: in vivo, Cyperus esculentus; conditions: post-emergence, dosage 80 g/ha, visual assessment about 3 weeks after treatment vs untreated controls
How it was run: as §1

[16] = test system: VIOTR; assay: Post-emergence action against VIOTR; format: in vivo, Viola tricolor; conditions: post-emergence, dosage 80 g/ha
How it was run: as §1

[17] = test system: LOLMU; assay: Pre-emergence action against LOLMU; format: in vivo, Lolium multiflorum; conditions: dosage 320 g/ha, scored visually after 3 weeks vs untreated controls
How it was run: as §2

[18] = test system: SETVI; assay: Pre-emergence action against SETVI; format: in vivo, Setaria viridis; conditions: pre-emergence, dosage 320 g/ha, scored visually after 3 weeks vs untreated controls
How it was run: as §2

[19] = test system: ABUTH; assay: Pre-emergence action against ABUTH; format: in vivo, Abutilon theophrasti; conditions: pre-emergence, dosage 320 g/ha, scored visually after 3 weeks vs untreated controls
How it was run: as §2

[20] = test system: AMARE; assay: Pre-emergence action against AMARE; format: in vivo, Amaranthus retroflexus; conditions: pre-emergence, dosage 320 g/ha, scored visually after 3 weeks vs untreated controls
How it was run: as §2

[21] = test system: POLCO; assay: Pre-emergence action against POLCO; format: in vivo, Polygonum convolvulus; conditions: Dosage 320 g/ha, pre-emergence
How it was run: as §2

[22] = test system: ECHCG; assay: Pre-emergence action against ECHCG; format: in vivo, Echinochloa crus-galli; conditions: pre-emergence, dosage 320 g/ha, scored visually after 3 weeks vs untreated controls
How it was run: as §2

[23] = test system: CYPES; assay: Pre-emergence action against CYPES; format: in vivo, Cyperus esculentus; conditions: pre-emergence, dosage 320 g/ha, scored visually after 3 weeks vs untreated controls
How it was run: as §2

[24] = test system: MATIN; assay: Pre-emergence action against MATIN; format: in vivo, Matricaria inodora; conditions: Dosage 320 g/ha, pre-emergence
How it was run: as §2

CCn1nnnc1NC(=O)c1ccc(C(F)(F)F)c(C(C)=O)c1C [2-14]
90: Post-emergence action against PHBPU [13]
100%: Post-emergence action against ECHCG (herbicidal action in percent) [1] | Post-emergence action against MATIN (herbicidal action in percent) [4] | Post-emergence action against ABUTH (herbicidal action in percent) [7] | Pre-emergence action against VERPE [8] | Post-emergence action against AMARE (herbicidal action in percent) [10] | Pre-emergence action against VIOTR [11] | Pre-emergence action against STEME [14] | SETVI (Table B8, pre-emergence herbicidal activity) [18] | Pre-emergence action against ABUTH (herbicidal activity) [19] | Pre-emergence action against AMARE (herbicidal activity) [20] | Pre-emergence action against ECHCG (herbicidal activity) [22] | Pre-emergence action against MATIN [24]
100: Post-emergence action against STEME [5] | Post-emergence action against VIOTR [16]
80: Post-emergence action against VERPE [2]
80%: Pre-emergence action against ALOMY (herbicidal activity in percent) [6] | Post-emergence action against LOLMU (herbicidal action in percent) [9] | Pre-emergence action against LOLMU (herbicidal activity) [17] | Pre-emergence action against POLCO [21]
90%: Pre-emergence action against AVEFA (herbicidal activity) [3] | Post-emergence action against SETVI (herbicidal action in percent) [12] | Post-emergence action against CYPES (herbicidal action in percent) [15] | Pre-emergence action against CYPES (herbicidal activity) [23]
